# Results from paper PMC12396409, “Screening and hit evaluation of a microbial metabolite library against the pathogenic Plasmodium falciparum and Toxoplasma gondii parasites” (International Journal for Parasitology: Drugs and Drug …, 2025).
# Where two headings read alike, the source gives them in different places.
# Columns and labels:
# [1] = tested on: T. gondii RH strain (RH-Tub-eYFP) tachyzoites; assay: microbe, parasite or virus in culture; type: cell-based, Toxoplasma gondii; conditions: 72 h; for percent parasite growth at 2 µg/mL: Toxoplasma gondii
# [2] = tested on: P. falciparum 3D7 parasites; assay: P. falciparum growth inhibition assay, 2-cycle (120 h treatment), delayed-death screen and dose-response; type: cell-based, Plasmodium falciparum; conditions: for activity at 2 µg/mL: Plasmodium falciparum, 3D7
# [3] = tested on: P. falciparum 3D7 parasites; assay: P. falciparum growth inhibition assay, 1-cycle (72 h treatment), SYBR DNA staining (library screen at 2 μg/mL and dose-response); type: cell-based, Plasmodium falciparum; conditions: for activity at 2 µg/mL: Plasmodium falciparum, 3D7
# [4] = library screen at 2 μg/mL, % growth, replicate 1
# [5] = library screen at 2 μg/mL, % growth, replicate 2
# [6] = library screen at 2 μg/mL, 120 h, % growth, replicate 1
# [7] = library screen at 2 μg/mL, 120 h, % growth, replicate 2
# [8] = library screen at 2 μg/mL, 72 h, % growth, replicate 1
# [9] = library screen at 2 μg/mL, 72 h, % growth, replicate 2
# [10] = T. gondii, parasite screen at 2 μg/mL, % growth, replicate 1
# [11] = T. gondii, parasite screen at 2 μg/mL, % growth, replicate 2
# [12] = P. falciparum 3D7, 120 h, parasite screen at 2 μg/mL, % growth, replicate 1
# [13] = P. falciparum 3D7, 120 h, parasite screen at 2 μg/mL, % growth, replicate 2
# [14] = P. falciparum 3D7, 72 h, parasite screen at 2 μg/mL, % growth, replicate 1
# [15] = P. falciparum 3D7, 72 h, parasite screen at 2 μg/mL, % growth, replicate 2
smiles,measurement,setting,value
C[C@@H]1C=C2C(=O)O[C@@H]3CC[C@H](C1)[C@]23O [Galiellalactone],Tg_72h_%Growth_Rep1,[1]; [4],132.28%
same,Tg_72h_%Growth_Rep2,[1]; [5],99.14%
same,Pf_120h_%Growth_Rep1,[2]; [6],91.95%
same,Pf_120h_%Growth_Rep2,[2]; [7],97.41%
same,Pf_72h_%Growth_Rep1,[3]; [8],88.40%
same,Pf_72h_%Growth_Rep2,[3]; [9],106.75%
"C[C@H]1CCC[C@@H](O)CCCCCc2cc(O)cc(O)c2C(=O)O1 [Zearalanol, beta-]",Tg_72h_%Growth_Rep1,"[1]; T. gondii, screen at 2 μg/mL, replicate 1",150.26%
same,Tg_72h_%Growth_Rep2,"[1]; T. gondii, screen at 2 μg/mL, replicate 2",92.47%
same,Pf_120h_%Growth_Rep1,"[2]; P. falciparum, 120 h, screen at 2 μg/mL, replicate 1",90.97%
same,Pf_120h_%Growth_Rep2,"[2]; P. falciparum, 120 h, screen at 2 μg/mL, replicate 2",85.38%
same,Pf_72h_%Growth_Rep1,"[3]; P. falciparum, 72 h, screen at 2 μg/mL, replicate 1",81.97%
same,Pf_72h_%Growth_Rep2,"[3]; P. falciparum, 72 h, screen at 2 μg/mL, replicate 2",86.14%
CO[C@H]1[C@@H](OC)C[C@H](C)[C@@H](OC)c2cc(O)cc(c2O)NC(=O)/C(C)=C/C=C\[C@H](OC)[C@@H](OC(N)=O)/C(C)=C/[C@@H]1C [TAN 420E],Tg_72h_%Growth_Rep1,"[1]; T. gondii, parasite screen 2 μg/mL, % growth, replicate 1",60.21%
same,Tg_72h_%Growth_Rep2,"[1]; T. gondii, parasite screen 2 μg/mL, % growth, replicate 2",64.79%
same,Pf_120h_%Growth_Rep1,"[2]; P. falciparum, 120 h, parasite screen 2 μg/mL, % growth, replicate 1",36.47%
same,Pf_120h_%Growth_Rep2,"[2]; P. falciparum, 120 h, parasite screen 2 μg/mL, % growth, replicate 2",7.03%
same,Pf_72h_%Growth_Rep1,"[3]; P. falciparum, 72 h, parasite screen 2 μg/mL, % growth, replicate 1",3.51%
same,Pf_72h_%Growth_Rep2,"[3]; P. falciparum, 72 h, parasite screen 2 μg/mL, % growth, replicate 2",-0.34%
CC(=O)O[C@H]1CCC2(C)C3=C(CCC2C1(C)C)[C@@]1(C)CC[C@@H](C(C)CCC=C(C)C)[C@]1(C)CC3 (stereo partly shown) [Euphol acetate],Tg_72h_%Growth_Rep1,[1]; [4],114.80%
same,Tg_72h_%Growth_Rep2,[1]; [5],105.35%
same,Pf_120h_%Growth_Rep1,[2]; [6],60.77%
same,Pf_120h_%Growth_Rep2,[2]; [7],92.36%
same,Pf_72h_%Growth_Rep1,[3]; [8],66.07%
same,Pf_72h_%Growth_Rep2,[3]; [9],91.20%
CN1C(=O)c2ccccc2-n2c(nc3ccccc3c2=O)/C1=C\c1ccccc1 [Benzomalvin B],Tg_72h_%Growth_Rep1,[1]; [4],108.53%
same,Tg_72h_%Growth_Rep2,[1]; [5],82.96%
same,Pf_120h_%Growth_Rep1,[2]; [6],2.26%
same,Pf_120h_%Growth_Rep2,[2]; [7],61.47%
same,Mean,"[3]; P. falciparum, 72 h, 2 μg/mL, mean of both replicates, growth (% of control)",40.89
same,Pf_72h_%Growth_Rep1,[3]; [8],1.98%
same,Pf_72h_%Growth_Rep2,[3]; [9],79.80%
CC=C(C)c1c(Cl)c(OC)c(C)c2c1Oc1c(Cl)c(O)c(Cl)c(C)c1C(=O)O2 [BIA-N1157],Tg_72h_%Growth_Rep1,[1]; [10],96.79%
same,Tg_72h_%Growth_Rep2,[1]; [11],78.56%
same,Pf_120h_%Growth_Rep1,[2]; [12],89.90%
same,Pf_120h_%Growth_Rep2,[2]; [13],141.00%
same,Pf_72h_%Growth_Rep1,[3]; [14],86.70%
same,Pf_72h_%Growth_Rep2,[3]; [15],91.20%
CC[C@H]1C[C@@H]2CC[C@@H](O2)[C@@H](C)C(=O)O[C@H](C)C[C@H]2CC[C@H](O2)[C@H](C)C(=O)O[C@@H](C)C[C@@H]2CC[C@@H](O2)[C@@H](C)C(=O)O[C@H](C)C[C@H]2CC[C@H](O2)[C@H](C)C(=O)O1 [BIA-M1055],Tg_72h_%Growth_Rep1,[1]; [10],3.56%
same,Tg_72h_%Growth_Rep2,[1]; [11],1.37%
same,Pf_120h_%Growth_Rep1,[2]; [12],15.60%
same,Pf_120h_%Growth_Rep2,[2]; [13],21.38%
same,Pf_72h_%Growth_Rep1,[3]; [14],7.23%
same,Pf_72h_%Growth_Rep2,[3]; [15],6.66%
C/C(=C\c1csc(C)n1)[C@@H]1C[C@@H]2O[C@]2(C)CCC[C@H](C)[C@H](O)[C@@H](C)C(=O)C(C)(C)[C@@H](O)CC(=O)O1 [Epothilone B],percent parasite growth at 2 µg/mL,"[1]; library screen at 2 μg/mL, % growth, replicate 1, read-out: Tg_72h_%Growth_Rep1",5.99%
same,percent parasite growth at 2 µg/mL,"[1]; library screen at 2 μg/mL, % growth, replicate 2, read-out: Tg_72h_%Growth_Rep2",3.71%
same,activity at 2 µg/mL,"[2]; library screen at 2 μg/mL, 120 h, % growth, replicate 1, read-out: Pf_120h_%Growth_Rep1",5.18%
same,activity at 2 µg/mL,"[2]; library screen at 2 μg/mL, 120 h, % growth, replicate 2, read-out: Pf_120h_%Growth_Rep2",3.63%
same,activity at 2 µg/mL,"[3]; library screen at 2 μg/mL, 72 h, % growth, replicate 1, read-out: Pf_72h_%Growth_Rep1",31.4%
same,activity at 2 µg/mL,"[3]; library screen at 2 μg/mL, 72 h, % growth, replicate 2, read-out: Pf_72h_%Growth_Rep2",-0.31%
CCCC[C@@H](C)[C@@H](OC(=O)C[C@@H](CC(=O)O)C(=O)O)[C@H](C[C@@H](C)CCCCCC[C@@H](O)C[C@H](O)[C@H](C)N)OC(=O)C[C@@H](CC(=O)O)C(=O)O [Fumonisin B2],Tg_72h_%Growth_Rep1,[1]; [4],118.32%
same,Tg_72h_%Growth_Rep2,[1]; [5],95.97%
same,Pf_120h_%Growth_Rep1,[2]; [6],88.54%
same,Pf_120h_%Growth_Rep2,[2]; [7],108.75%
same,Pf_72h_%Growth_Rep1,[3]; [8],86.29%
same,Pf_72h_%Growth_Rep2,[3]; [9],114.27%
CCc1cc(O)cc(O)c1C(=O)O[C@H]1[C@H](O)[C@H](OC)[C@H](OC/C2=C\C=C\C[C@H](O)/C(C)=C/[C@H](CC)[C@@H](O[C@@H]3OC(C)(C)[C@@H](OC(=O)C(C)C)[C@H](O)[C@@H]3O)/C(C)=C/C(C)=C/C[C@@H]([C@@H](C)O)OC2=O)O[C@@H]1C [Didechlorofidaxomicin],Tg_72h_%Growth_Rep1,[1]; [4],110.91%
same,Tg_72h_%Growth_Rep2,[1]; [5],90.14%
same,Pf_120h_%Growth_Rep1,[2]; [6],14.52%
same,Pf_120h_%Growth_Rep2,[2]; [7],29.62%
same,Pf_72h_%Growth_Rep1,[3]; [8],4.39%
same,Pf_72h_%Growth_Rep2,[3]; [9],6.69%
